The test deals with SREBP-2 (Homo sapiens (Human), UniProt Q12772). The test can be described thus: In vitro assay SREBP-2: PathHunter U2OS SREBP-2 Nuclear Translocation Cell Line, U18666A-stimulated. To be noted: PathHunter U2OS SREBP-2 nuclear translocation cells, U18666A 10 μM, overnight (16 hours). The format is cell-based.

Take `Cc1ccnc(OC[C@@H](C)[C@H]2CC[C@H]3[C@@H]4CC=C5C[C@@H](O)CC[C@]5(C)[C@H]4CC[C@]23C)c1` [Example 442, (1R,3aS,3bS,7S,9aR,9bS,11aS)-9a,11a-dimethyl-1-[(2S)-1-[(4-methylpyridin-2-yl)oxy]propan-2-yl]-1H,2H,3H,3aH,3bH,4H,6H,7H,8H,9H,9aH,9bH,10H,11H,11aH-cyclopenta[a]phenanthren-7-ol]: the IC50 (commonly the concentration that inhibits the measured activity by half) is less than 250 nM.

Compound `Cc1cccnc1OC[C@@H](C)[C@H]1CC[C@H]2[C@@H]3CC=C4C[C@@H](O)CC[C@]4(C)[C@H]3CC[C@]12C` [Example 443, (3S,8S,9S,10R,13S,14S,17R)-10,13-dimethyl-17-((S)-1-((3-methylpyridin-2-yl)oxy)propan-2-yl)-2,3,4,7,8,9,10,11,12,13,14,15,16,17-tetradecahydro-1H-cyclopenta[a]phenanthren-3-ol] returned an IC50 of less than 250 nM. In the case of `C[C@H](COc1cccc(CO)n1)[C@H]1CC[C@H]2[C@@H]3CC=C4C[C@@H](O)CC[C@]4(C)[C@H]3CC[C@]12C` [Example 444, (3S,8S,9S,10R,13S,14S,17R)-17-((S)-1-((6-(hydroxymethyl)pyridin-2-yl)oxy)propan-2-yl)-10,13-dimethyl-2,3,4,7,8,9,10,11,12,13,14,15,16,17-tetradecahydro-1H-cyclopenta[a]phenanthren-3-ol], the IC50 is less than 250 nM. Take `C[C@H](COc1ccc(CO)cn1)[C@H]1CC[C@H]2[C@@H]3CC=C4C[C@@H](O)CC[C@]4(C)[C@H]3CC[C@]12C` [Example 445, (3S,8S,9S,10R,13S,14S,17R)-17-((S)-1-((5-(hydroxymethyl)pyridin-2-yl)oxy)propan-2-yl)-10,13-dimethyl-2,3,4,7,8,9,10,11,12,13,14,15,16,17-tetradecahydro-1H-cyclopenta[a]phenanthren-3-ol]: the IC50 lay in the range of 250 to 1000 nM. Compound `C[C@H](COc1cc(CO)ccn1)[C@H]1CC[C@H]2[C@@H]3CC=C4C[C@@H](O)CC[C@]4(C)[C@H]3CC[C@]12C` [Example 446, (3S,8S,9S,10R,13S,14S,17R)-17-((S)-1-((4-(hydroxymethyl)pyridin-2-yl)oxy)propan-2-yl)-10,13-dimethyl-2,3,4,7,8,9,10,11,12,13,14,15,16,17-tetradecahydro-1H-cyclopenta[a]phenanthren-3-ol] registered an IC50 of less than 250 nM.

Compound `CNC(=O)c1cccc(OC[C@@H](C)[C@H]2CC[C@H]3[C@@H]4CC=C5C[C@@H](O)CC[C@]5(C)[C@H]4CC[C@]23C)n1` [Example 448, 6-((S)-2-((3S,8S,9S,10R,13S,14S,17R)-3-hydroxy-10,13-dimethyl-2,3,4,7,8,9,10,11,12,13,14,15,16,17-tetradecahydro-1H-cyclopenta[a]phenanthren-17-yl)propoxy)-N-methylpicolinamide] displayed an IC50 of 250 to 1000 nM. The compound `CNC(=O)c1ccc(OC[C@@H](C)[C@H]2CC[C@H]3[C@@H]4CC=C5C[C@@H](O)CC[C@]5(C)[C@H]4CC[C@]23C)nc1` [Example 449, 6-((S)-2-((3S,8S,9S,10R,13S,14S,17R)-3-hydroxy-10,13-dimethyl-2,3,4,7,8,9,10,11,12,13,14,15,16,17-tetradecahydro-1H-cyclopenta[a]phenanthren-17-yl)propoxy)-N-methylnicotinamide] had an IC50 of less than 250 nM. `CNC(=O)c1ccnc(OC[C@@H](C)[C@H]2CC[C@H]3[C@@H]4CC=C5C[C@@H](O)CC[C@]5(C)[C@H]4CC[C@]23C)c1` [Example 450, 2-((S)-2-((3S,8S,9S,10R,13S,14S,17R)-3-hydroxy-10,13-dimethyl-2,3,4,7,8,9,10,11,12,13,14,15,16,17-tetradecahydro-1H-cyclopenta[a]phenanthren-17-yl)propoxy)-N-methylisonicotinamide]: the half-maximal inhibitory concentration (IC50) is less than 250 nM.

Compound `CNC(=O)c1cccnc1OC[C@@H](C)[C@H]1CC[C@H]2[C@@H]3CC=C4C[C@@H](O)CC[C@]4(C)[C@H]3CC[C@]12C` [Example 451, 2-((S)-2-((3S,8S,9S,10R,13S,14S,17R)-3-hydroxy-10,13-dimethyl-2,3,4,7,8,9,10,11,12,13,14,15,16,17-tetradecahydro-1H-cyclopenta[a]phenanthren-17-yl)propoxy)-N-methylnicotinamide] registered an IC50 of less than 250 nM. The same measure for `C[C@H](CCc1ncccc1C(C)(C)O)[C@H]1CC[C@H]2[C@@H]3CC=C4C[C@@H](O)CC[C@]4(C)[C@H]3CC[C@]12C` [Example 456, (3S,8S,9S,10R,13R,14S,17R)-17-((R)-4-(3-(2-hydroxypropan-2-yl)pyridin-2-yl)butan-2-yl)-10,13-dimethyl-2,3,4,7,8,9,10,11,12,13,14,15,16,17-tetradecahydro-1H-cyclopenta[a]phenanthren-3-ol]: less than 250 nM. As to `CCOc1cccnc1CC[C@@H](C)[C@H]1CC[C@H]2[C@@H]3CC=C4C[C@@H](O)CC[C@]4(C)[C@H]3CC[C@]12C` [Example 457, (1R,3aS,3bS,7S,9aR,9bS,11aR)-1-[(2R)-4-(3-ethoxypyridin-2-yl)butan-2-yl]-9a,11a-dimethyl-1H,2H,3H,3aH,3bH,4H,6H,7H,8H,9H,9aH,9bH,10H,11H,11aH-cyclopenta[a]phenanthren-7-ol], the IC50 was less than 250 nM.

In turn, `CC(=N)N1CCN(C(=O)CC[C@@H](C)[C@H]2CC[C@H]3[C@@H]4CC=C5C[C@@H](O)CC[C@]5(C)[C@H]4CC[C@]23C)CC1` [Example 459, (R)-4-((3S,8S,9S,10R,13R,14S,17R)-3-hydroxy-10,13-dimethyl-2,3,4,7,8,9,10,11,12,13,14,15,16,17-tetradecahydro-1H-cyclopenta[a]phenanthren-17-yl)-1-(4-(1-iminoethyl)piperazin-1-yl)pentan-1-one] yielded an IC50 of 250 to 1000 nM. Then `C[C@H](OC(=O)N(C)C)[C@H]1CC[C@H]2[C@@H]3CC=C4C[C@@H](O)CC[C@]4(C)[C@H]3CC[C@]12C` [Example 461, (1S)-1-[(1S,3aS,3bS,7S,9aR,9bS,11aS)-7-hydroxy-9a,11a-dimethyl-1H,2H,3H,3aH,3bH,4H,6H,7H,8H,9H,9aH,9bH,10H,11H,11aH-cyclopenta[a]phenanthren-1-yl]ethyl N,N-dimethylcarbamate], with 250 to 1000 nM.

`COC(=O)NC[C@@H](C)[C@H]1CC[C@H]2[C@@H]3CC=C4C[C@@H](O)CC[C@]4(C)[C@H]3CC[C@]12C` [Example 463, methyl ((S)-2-((3S,8S,9S,10R,13S,14S,17R)-3-hydroxy-10,13-dimethyl-2,3,4,7,8,9,10,11,12,13,14,15,16,17-tetradecahydro-1H-cyclopenta[a]phenanthren-17-yl)propyl)carbamate] showed an IC50 of 250 to 1000 nM. Then `CNC(=O)NC[C@@H](C)[C@H]1CC[C@H]2[C@@H]3CC=C4C[C@@H](O)CC[C@]4(C)[C@H]3CC[C@]12C` [Example 464, 1-((S)-2-((3S,8S,9S,10R,13S,14S,17R)-3-hydroxy-10,13-dimethyl-2,3,4,7,8,9,10,11,12,13,14,15,16,17-tetradecahydro-1H-cyclopenta[a]phenanthren-17-yl)propyl)-3-methylurea], with 250 to 1000 nM; and `COC(=O)N1CCN(C(=O)OC[C@@H](C)[C@H]2CC[C@H]3[C@@H]4CC=C5C[C@@H](O)CC[C@]5(C)[C@H]4CC[C@]23C)CC1` [Example 465, 1-(2S)-2-[(1R,3aS,3bS,7S,9aR,9bS,11aS)-7-hydroxy-9a,11a-dimethyl-1H,2H,3H,3aH,3bH,4H,6H,7H,8H,9H,9aH,9bH,10H,11H,11aH-cyclopenta[a]phenanthren-1-yl]propyl 4-methyl piperazine-1,4-dicarboxylate], with less than 250 nM.
